{"source": "patent US4675405A", "about": "“Quinoline compounds as antiallergic and antithrombotic agents” (American Home Products Corporation, priority 1986, dated 1987)", "key": {"[1]": {"tested_on": "LTB4 synthesis (lipoxygenase)", "experiment": "inhibition of LTB4 (5,12-diHETE) synthesis by rat glycogen-elicited polymorphonuclear leukocytes", "assay_type": "cell-based", "conditions": "Leukocyte; rat PMN, A23187 + [14C]arachidonic acid; read-out: 50% Inhibitory Concentration (IC50) LTB4", "method": "(§1) This is especially true with respect to 5,12-diHETE, which is also denoted as LTB4 [see Ford-Hitchinson, J. Roy. Soc. Med., 74, 831 (1981)]. The assay of this Example measures the ability of the compounds of the inventin to inhibit the synthesis of 5HETE and LTB4 by rat glycogen-elicited polymorphonuclear leukocytes.\n(§2) Peritoneal PMN are obtained from female Wistar rats (150-250 g) that received an i.p. injection of 6% glycogen (10 ml). After 24 hours, rats are killed by CO2 asphyxiation and peritoneal cells are harvested by peritoneal lavage using Ca^++ and Mg^++ free Hanks' balanced salt solution (HBSS). The peritoneal exudate is centrifuged at 400 g for 10 minutes. After centrifugation, the lavaged fluid is removed and the cell pellet is resuspended in HBSS containing Ca^++ and Mg^++ and 10 mM L-cysteine at a concentration of 2×10^7 cells/ml. To 1 ml portions of cell suspension, test drugs or vehicle are added and incubated at 37° C. for 10 minutes. Following this preincubation, the calcium ionophore (10 μM), A23187, is added together with 0.5 μCi [^14 C] arachidonic acid and further incubated for 10 minutes. […] After chromatography, the areas associated with 5-HETE and 5,12-diHETE standards are identified by autoradiography, cut out and quantitated by liquid scintillation.\n(§3) Results are expressed as % inhibition of [^14 C]5-HETE and [^14 C]LTB4 (5,12-HETE)synthesis. […]"}, "[2]": {"tested_on": "5-HETE synthesis (lipoxygenase)", "experiment": "inhibition of 5-HETE synthesis by rat glycogen-elicited polymorphonuclear leukocytes", "assay_type": "cell-based", "conditions": "for IC50: Leukocyte, rat PMN, A23187 + [14C]arachidonic acid, read-out: 50% Inhibitory Concentration (IC50) 5-HETE", "method": "as §1\n(§4) Peritoneal PMN are obtained from female Wistar rats (150-250 g) that received an i.p. injection of 6% glycogen (10 ml). After 24 hours, rats are killed by CO2 asphyxiation and peritoneal cells are harvested by peritoneal lavage using Ca^++ and Mg^++ free Hanks' balanced salt solution (HBSS). The peritoneal exudate is centrifuged at 400 g for 10 minutes. After centrifugation, the lavaged fluid is removed and the cell pellet is resuspended in HBSS containing Ca^++ and Mg^++ and 10 mM L-cysteine at a concentration of 2×10^7 cells/ml. To 1 ml portions of cell suspension, test drugs or vehicle are added and incubated at 37° C. for 10 minutes. Following this preincubation, the calcium ionophore (10 μM), A23187, is added together with 0.5 μCi [^14 C] arachidonic acid and further incubated for 10 minutes. The reaction is stopped by the addition of ice cold water (3 ml) and acidifying to pH 3.5. Lipoxygenase products are then extracted twice into diethyl ether. The pooled ether extracts are evaporated to dryness under nitrogen and the residue is redissolved in a small volume of methanol and spotted on aluminum backed pre-coated thin layer chromatographic plates. The samples are them co-chromatographed with authentic reference 5-HETE, 12-HETE and 5,12-diHETE in the solvent system--hexane:ether:acetic acid (50:50:3). After chromatography, the areas associated with 5-HETE and 5,12-diHETE standards are identified by autoradiography, cut out and quantitated by liquid scintillation.\nResults are expressed as % inhibition of [^14 C]5-HETE and [^14 C]LTB4 (5,12-HETE)synthesis. [formula]\nTesting compounds of the invention in this assay and using the antioxident 3-amino-1-[m-(trifluoromethyl)phenyl]-2-pyrazoline (BW755C) as a standard, the following results are obtained."}, "[3]": {"tested_on": "TxB2 synthesis (cyclooxygenase)", "experiment": "inhibition of synthesis of the cyclooxygenase oxidation product TxB2 by rat PMN", "assay_type": "cell-based", "method": "as §4\nThe procedure of Example 5 is also employed for the determination of the ability of the compounds of the invention to inhibit the synthesis of the arachidonic acid cyclooxygenase oxidation product TxB2.\nIn this assay, the procedure of Example 5 is carried out as described. However, in order to determine cyclooxygenase activity, the samples are cochromatographed with authentic reference TxB2 in the solvent system ethyl acetate:formic acid (80:1) and the upper phase of ethyl acetate:isoctane:acetic acid:water (110:50:20:100). After chromatography, the areas associated with TxB2 standard are identified by autoradiography, cut out and quantitated by liquid scintillation techniques.\nThe results are calculated as in Example 5."}, "[4]": {"tested_on": "LTD4 induced bronchospasm", "experiment": "in vivo inhibition of LTD4 induced bronchospasm in guinea pigs", "set-up": "species or system guinea pig", "conditions": "for % Inhibition (Statistical Average), Overflow Volume at 1 min. / % Inhibition (Statistical Average), Overflow Volume at 3 min. / % Inhibition (Statistical Average), Overflow Volume at 5 min.: 10 minutes before LTD4", "method": "The assay of this Example measures the in vivo ability of the compounds of the invention to inhibit the bronchospasm induced in guinea pigs by the exogenously administered leukotrienes C4 and/or D4. This assay is essentially a measure of the SRS-A antagonist properties of the compounds tested.\nMale Hartley strain guinea pigs (350-600 g) are anesthetized with pentobarbital sodium (50 mg/kg, i.p.). The jugular vein is cannulated for injection of drugs and the carotid artery for monitoring blood pressure. The trachea is cannulated for artificial ventilation by a miniature Starling pump and for indirect measurement of respiratory volume changes as described infra. Additional pentobarbital sodium (15 mg/kg, i.v.) is administered to arrest spontaneous respiration. Submaximal bronchoconstrictor responses are established in control animals by varying the dose-levels of leukotriene. Intravenous dose-levels for LTC4 range from 1 to 2 μg/kg and for LTD4 the range is from 0.3 to 1 μg/kg. The aerosol bronchoprovocation dose for LTC4 is generated from 1.6 μM solution and for LTD4 from a 2.0 μM solution.\nTest drugs are administered either intravenously, intragastrically, by aerosol or orally at 1 or 10 minutes before induction of bronchospasm by administration of either LTC4 or LTD4 at the predetermined dose-levels. Aerosols of soluble drugs or leukotrienes are produced in-line for 10 seconds only by actuation of an ultrasonic nebulizer (Monaghan). Aerosolized drug dosage is expressed in terms of solution concentration and by a fixed aerosol exposure time (approximately 10 seconds). Control animals receive saline in place of drug.\n(§5) Respiratory volume changes are determined by a calibrated piston whose travel is recorded, via a linear transducer, on a Beckman Dynograph recorder. Maximal bronchoconstrictor volume is determined by clamping off the trachea at the end of the experiment. Overflow volumes at 1, 3 and 5 minutes are obtained from the recorded charts.\nThe overflow volume at 1, 3 and 5 minutes is expressed as a percentage of maximal bronchoconstriction. Combined group values are used from each of these time intervals to determine the inhibitory effect of drugs. [formula] Students t-test for unpaired data is used to determine statistical significance. Dose reponse curves are generated and ED50 doses are interpolated from the regression lines.\nResults for compounds of the invention in this assay, using LTD4 for induction of bronchospasm, are given below:\nTwo other compounds of this invention are tested in this assay and the results are expressed based on the following calculations which employ the values obtained for the overflow volumes at 1, 3 and 5 minutes:\nArea under the volume overflow curve (AUC) is estimated, using the overflow values at 1, 3 and 5 minutes, and expressed as a percentage of the maximal overflow AUC (equation 1): [formula] Drug effects are reported as percent inhibition of % max AUC values obtained from appropriate control animals (equation 2): [formula]\nStudent's t-test for unpaired data is used to determine statistical significance (p<0.05). IC50 values can also be determined by inverse prediction from linear regression lines through points between 10 and 90% inhibition."}, "[5]": {"tested_on": "5-HETE and LTB4 synthesis (lipoxygenase)", "experiment": "inhibition of synthesis of lipoxygenase products 5-HETE and LTB4 by rat PMN (product not separately stated)", "assay_type": "cell-based", "method": "as §1, §2, §3"}, "[6]": {"tested_on": "ovalbumin induced bronchospasm", "experiment": "in vivo inhibition of ovalbumin induced bronchospasm mediated by endogenous mediators in sensitized guinea pigs", "set-up": "species or system guinea pig", "conditions": "10 minutes before i.v. ovalbumin challenge", "method": "The assay of this Example measures the in vivo ability of the compounds of the invention to inhibit the bronchospasm induced in guinea pigs by endogenous mediators of the bronchoconstriction.\nMale Hartley strain guinea pigs weighing 250-350 g are sensitized to chicken ovalbumin (OA) (10 mg i.p.) on days 1 and 3 and used starting on day 26. The animals are anesthetized with pentobarbital sodium (50 mg/kg, i.p.), bilateral vagotomy is performed, and the jugular vein is cannulated for injection of drugs and the carotid artery for monitoring blood pressure. The trachea is cannulated for artificial ventilation by miniature Starling pump and for indirect measurement of respiratory volume changes as described, infra. Succinylcholine (2 mg/kg, i.v.) is administered to arrest spontaneous respiration. […]\nas §5, with “volumes at minutes 1, 3” for “volumes at 1, 3”, “and 5 are obtained” for “and 5 minutes are obtained”\nArea under the volume overflow curve (AUC) is estimated, using the overflow values at 1, 3 and 5 minutes, and expressed as a percentage of the maximal overflow AUC (equation 1): [formula] […]"}}}
{"smiles": "NC1=NN(c2cccc(C(F)(F)F)c2)CC1", "note": "[BW755C, 3-amino-1-[m-(trifluoromethyl)phenyl]-2-pyrazoline, reference compound]", "values": [{"measurement": "IC50", "setting": "[1]", "value": 30, "unit": "µM"}, {"measurement": "IC50", "setting": "[2]", "value": 43, "unit": "µM"}]}
{"smiles": "CCS(=O)(=O)Nc1cccc(OCc2ccc3ccccc3n2)c1", "note": "[Example 2A, N-[3-[(2-Quinolinyl)methoxy]phenyl]ethane sulfonamide]", "values": [{"measurement": "% Inhibition at 100 μm (TxB2 synthesis)", "setting": "[3]", "value": 56, "unit": "%"}, {"measurement": "% Inhibition at 100 μm (first value, 5-HETE by column order)", "setting": "[2]; 100 μm", "value": 93, "unit": "%"}, {"measurement": "% Inhibition (Statistical Average), Overflow Volume at 1 min.", "setting": "[4]; 50 mg/kg intraduodenal", "value": 88, "unit": "%"}, {"measurement": "% Inhibition (Statistical Average), Overflow Volume at 3 min.", "setting": "[4]; 50 mg/kg intraduodenal", "value": 86, "unit": "%"}, {"measurement": "% Inhibition (Statistical Average), Overflow Volume at 5 min.", "setting": "[4]; 50 mg/kg intraduodenal", "value": 81, "unit": "%"}]}
{"smiles": "CCCCS(=O)(=O)Nc1cccc(OCc2ccc3ccccc3n2)c1", "note": "[Example 2B, N-[3-[(2-Quinolinyl)methoxy]phenyl]-1-butane sulfonamide]", "values": [{"measurement": "IC50", "setting": "[1]", "value": 2.1, "unit": "µM"}, {"measurement": "% Inhibition at 100 μm (TxB2 synthesis)", "setting": "[3]", "value": 73, "unit": "%"}, {"measurement": "IC50", "setting": "[2]", "value": 1.6, "unit": "µM"}, {"measurement": "% Inhibition (Statistical Average), Overflow Volume at 1 min.", "setting": "[4]; 50 mg/kg intraduodenal", "value": "08", "unit": "%"}, {"measurement": "% Inhibition (Statistical Average), Overflow Volume at 3 min.", "setting": "[4]; 50 mg/kg intraduodenal", "value": 41, "unit": "%"}, {"measurement": "% Inhibition (Statistical Average), Overflow Volume at 5 min.", "setting": "[4]; 50 mg/kg intraduodenal", "value": 41, "unit": "%"}]}
{"smiles": "CCS(=O)(=O)Nc1cccc(OCc2ccc3ccccc3c2)c1", "note": "[Example 2C, N-[3-[(2-Naphthalenyl)methoxy]phenyl]ethane sulfonamide]", "values": [{"measurement": "% Inhibition (Statistical Average), Overflow Volume at 1 min.", "setting": "[4]; 50 mg/kg intraduodenal", "value": 61, "unit": "%"}, {"measurement": "% Inhibition (Statistical Average), Overflow Volume at 3 min.", "setting": "[4]; 50 mg/kg intraduodenal", "value": 41, "unit": "%"}, {"measurement": "% Inhibition (Statistical Average), Overflow Volume at 5 min.", "setting": "[4]; 50 mg/kg intraduodenal", "value": 53, "unit": "%"}]}
{"smiles": "CCS(=O)(=O)Nc1cccc(OCc2cc3ccccc3s2)c1", "note": "[Example 2D, N-[3-[(2-Benzo[b]thienyl)methoxy]phenyl]ethane sulfonamide]", "values": [{"measurement": ">50% Inhibitory at 50 μm", "setting": "[5]", "value": "+ (inhibition of >50%)"}, {"measurement": "50% Inhibition at 50 μm (TxB2 synthesis)", "setting": "[3]", "value": "+ (inhibition of >50%)"}, {"measurement": "% Inhibition of Max AUC", "setting": "[4]; 50 mg/kg intraduodenal, 10 minutes before induction of bronchospasm", "value": 13, "unit": "%"}]}
{"smiles": "CCCS(=O)(=O)Nc1cccc(OCc2cc3ccccc3s2)c1", "note": "[Example 2E, N-[3-[(2-Benzo[b]thienyl]methoxy]phenyl]-1-propane sulfonamide]", "values": [{"measurement": ">50% Inhibitory at 50 μm", "setting": "[5]", "value": "+ (inhibition of >50%)"}, {"measurement": "50% Inhibition at 50 μm (TxB2 synthesis)", "setting": "[3]", "value": "+ (inhibition of >50%)"}]}
{"smiles": "O=S(=O)(Nc1cccc(OCc2ccc3ccccc3n2)c1)C(F)(F)F", "note": "[Example 3, N-[3-[(2-Quinolinyl)methoxy]phenyl]trifluoromethane sulfonamide]", "values": [{"measurement": "% Inhibition", "setting": "[4]; 25 mg/kg administered intragastrically", "value": 98, "unit": "%"}, {"measurement": "ED50", "setting": "[4]; Cavia porcellus, po, administered intragastrically, LTD4 induced bronchospasm, read-out: IC50 (the source's name)", "value": 0.1, "unit": "mg/kg"}, {"measurement": "% Inhibition", "setting": "[6]; 25 mg/kg intragastric", "value": 97, "unit": "%"}, {"measurement": "ED50", "setting": "[6]; Cavia porcellus, 10 min, intragastric, read-out: IC50 (the source's name)", "value": 0.6, "unit": "mg/kg"}]}
